Measured values taken from patent publication US20100286164A1, “SUBSTITUTED ARYL ALKYLAMINO-OXY-ANALOGS AND USES THEREOF” (The Brigham and Women's Hospital, Inc, priority 2007, published 2010).

Tests used:
Assay type in all cases: biochemical
[1] = molecular target: T1, γ-secretase (C100FLAG APP-based substrate) (Homo sapiens, UniProt P49768); experiment: In vitro γ-secretase assay, C-100 Flag (APP-based substrate) cleavage; conditions: effect on C-100 Flag cleavage; compounds tested in vitro at 100 μM
T1 construct: made in house; host or cells: S-1 CHO cell line (Chinese hamster ovary)
Method: (§1) Purification of γ-Secretase and in Vitro γ-Secretase Assays—The following procedures can be used to isolate γ-secretase and measure its enzymatic activity. The multistep procedure for the high grade purification of human γ-secretase from the S-1 cells is performed as described previously (Fraering, P. C., et al. (2004) Biochemistry 43, 9774-9789). In vitro γ-secretase assays using the recombinant APP-based substrate C100FLAG and the recombinant Notch-based substrate N100FLAG are performed as reported previously (Esler, W. P., Kimberly, W. T., Ostaszewski, B. L., Ye, W., Diehl, T. S., Selkoe, D. J., and Wolfe, M. S. (2002) Proc. Natl. Acad. Sci. U.S.A. 99, 2720-2725, Kimberly, W. T., et al. (2003) Biochemistry 42, 137-144). Basically, the proteolytic reaction mixtures contain C100FLAG and N100FLAG substrate at a concentration of 1 μm, purified γ-secretase solubilized in 0.2% CHAPSO/HEPES, pH 7.5, at 10-fold dilution from stock (stock=the M2 anti-FLAG-eluted fraction in the purification protocol from S-1 cells (Fraering, P. C., et al. (2004) Biochemistry 43, 9774-9789)), 0.025% phosphatidylethanolamine (PE), and 0.10% phosphatidylcholine (PC). All the reactions are stopped by adding 0.5% SDS, and the samples are assayed for Aβ40 and Aβ42 by ELISA as described (Xia, W., Zhang, J., Ostaszewski, B. L., Kimberly, W. T., Seubert, P., Koo, E. H., Shen, J., and Selkoe, D. J. (1998) Biochemistry 37, 16465-16471). The capture antibodies are 2G3 (to Aβ residues 33-40) for the Aβ40 species and 21F12 (to Aβ residues 33-42) for the Aβ42 species.
(§2) Western Blotting and Antibodies—The following assay can be used to determine the extent to which the compounds of interest modulate the cleavage of APP and the Notch receptor. For Western analysis of PS1-NTF, PS1-CTF, Aph1α2-HA, FLAG-Pen-2, and NCT-GST, the samples are run on 4-20% Tris-glycine polyacrylamide gels, transferred to polyvinylidene difluoride, and can be probed with Ab14 (for PS1-NTF, 1:2000; a gift of S. Gandy), 13A11 (for PS1-CTF, 5 μg/ml; a gift of Elan Pharmaceuticals), 3F10 (for Aph1α2-HA, 50 ng/ml; Roche Applied Science), anti-FLAG M2 (for FLAG-Pen-2, 1:1000; Sigma), or αGST antibodies (for NCT-GST, 1:3000; Sigma). Samples from the γ-secretase activity assays (above) are run on 4-20% Tris-glycine gels and can be transferred to polyvinylidene difluoride membranes to detect AICD-FLAG with anti-FLAG M2 antibodies (1:1000, Sigma) and NICD-FLAG with Notch Ab1744 antibody (1:1000, Cell Signaling Technology), which is selective for the N terminus of NICD; the same samples are transferred to nitrocellulose membranes to detect Aβ with the anti-Aβ 6E10 antibody. Levels of AICD-FLAG and NICD-FLAG are estimated by densitometry using AlphaEase/Spot Denso (Alpha Innotech Corp.).
(§3) Naphthyl Amine Alcohol Analogs and Assay Data—Compounds listed in Table 2 may be assayed as described herein (e.g., in Examples 3 and 4) and the specificity may be evaluated by comparing the relative inhibitions of C-100 Flag and N-100 Flag cleavage. The potency of the inhibitor may be evaluated with an Aβ1-40 ELISA assay (e.g., using an Aβ40 ELISA kit available from Invitrogen, Carlsbad, Calif.). […] The following table indicates the properties of certain compounds of the invention that were assayed as described herein. (INH=Inhibits)

[2] = molecular target: T2, γ-secretase (Aβ1-40 production) (Homo sapiens, UniProt P49768); experiment: γ-Secretase assay, Aβ1-40 ELISA; conditions: 100 μM
T2 construct: made in house; host or cells: S-1 CHO cell line (Chinese hamster ovary)
Method: as §1, §3

[3] = molecular target: T3, γ-secretase (N100FLAG Notch-based substrate) (Homo sapiens, UniProt P49768); experiment: In vitro γ-secretase assay, N-100 Flag (Notch-based substrate) cleavage; conditions: effect on N-100 Flag cleavage; compounds tested in vitro at 100 μM
T3 construct: made in house; host or cells: S-1 CHO cell line (Chinese hamster ovary)
Method: as §1, §2, §3

With `CC(C)N(CCC(O)c1ccc2ccccc2c1)c1ccccc1` (centres unmarked) [Example 20] the “γ-Secretase Assay C-100 Flag” value [1] was “Inh”, the inhibition at 100 µM [2] was 68% and the “γ-Secretase Assay N-100 Flag” value [3] was “Inh”.

With `CC(C)N(CCC(O)c1ccc2ccccc2c1)Cc1ccc(F)c(F)c1` (centres unmarked) [Example 18] the “γ-Secretase Assay C-100 Flag” value [1] was “Inh”, the inhibition at 100 µM [2] was 64% and the “γ-Secretase Assay N-100 Flag” value [3] was “Enh”.

`CC(C)N(CCC(O)c1cccc2ccccc12)Cc1ccccc1` (centres unmarked) [Example 19] was tested, and the “γ-Secretase Assay C-100 Flag” value [1] was “Inh”, the inhibition at 100 µM [2] was 46% and the “γ-Secretase Assay N-100 Flag” value [3] was “Enh”.

For `OC(CCN1CCN(c2ccc(F)cc2)CC1)c1ccc2ccccc2c1` (centres unmarked) [Example 14, 3-(4-(4-fluorophenyl)piperazin-1-yl)-1-(naphthalen-2-yl)propan-1-ol], the “γ-Secretase Assay C-100 Flag” value [1] was “Inh”, the inhibition at 100 µM [2] was 61% and the “γ-Secretase Assay N-100 Flag” value [3] was “Enh”.

In the case of `OC(CCN1CCN(c2ccccc2)CC1)c1ccc2ccccc2c1` (centres unmarked) [Example 3], the inhibition at 100 µM [2] is reported as 0% and the “γ-Secretase Assay N-100 Flag” value [3] is reported as “Enh”.

For `CC(C)N(CCC(O)c1ccc(C(F)(F)F)cc1)Cc1ccccc1` (centres unmarked) [Example 41], the inhibition at 100 µM [2] was 27% and the “γ-Secretase Assay N-100 Flag” value [3] was “Enh”.

For `OC(CN1CCN(c2ccccc2)CC1)c1ccc2ccccc2c1` (centres unmarked) [Example 81], the inhibition at 100 µM [2] was 0% and the “γ-Secretase Assay N-100 Flag” value [3] was “Enh”.

`CC(C)N(CCC(O)c1ccc2ccccc2c1)Cc1ccccc1` (centres unmarked) [Example 1, 3-(benzyl(isopropyl)amino)-1-(naphthalen-2-yl)propan-1-ol] was tested, and the “γ-Secretase Assay C-100 Flag” value [1] was “Inhibits (Inh)”, the inhibition at 100 µM [2] was 16% and the “γ-Secretase Assay N-100 Flag” value [3] was “Enhances (Enh)”.

`CCOc1ccc(NCCC(O)c2ccc3ccccc3c2)cc1` (centres unmarked) [Example 32] was tested, and the “γ-Secretase Assay C-100 Flag” value [1] was “Inh”, the inhibition at 100 µM [2] was 40% and the “γ-Secretase Assay N-100 Flag” value [3] was “Inh”.

With `CN(CCC(O)c1ccc2ccccc2c1)Cc1ccccc1` (centres unmarked) [Example 44] the “γ-Secretase Assay ELISA % Inhibition [100 μM] Aβ1-40” value [2] was 56% and the “γ-Secretase Assay N-100 Flag” value [3] was “Enh”.

For `Cc1ccc(C(O)CCN(Cc2ccccc2)C(C)C)cc1F` (centres unmarked) [Example 54], the inhibition at 100 µM [2] was 29% and the “γ-Secretase Assay N-100 Flag” value [3] was “Inh”.

In the case of `CC(C)N(CCC(O)c1ccc2ccccc2c1)Cc1cc(F)cc(F)c1` (centres unmarked) [Example 31], the “γ-Secretase Assay C-100 Flag” value [1] is reported as “Inh”, the inhibition at 100 µM [2] is reported as 54% and the “γ-Secretase Assay N-100 Flag” value [3] is reported as “Inh”.

For `O=[N+]([O-])c1cc(NCCC(O)c2ccc3ccccc3c2)ccc1Cl` (centres unmarked) [Example 83], the “γ-Secretase Assay C-100 Flag” value [1] was “Inh”, the inhibition at 100 µM [2] was 46% and the “γ-Secretase Assay N-100 Flag” value [3] was “Inh”.

`CC(C)N(Cc1ccccc1)CC(O)c1ccc2ccccc2c1` (centres unmarked) [Example 82] was tested, and the “γ-Secretase Assay C-100 Flag” value [1] was “Inh”, the inhibition at 100 µM [2] was 0% and the “γ-Secretase Assay N-100 Flag” value [3] was “Inh”.

`CC(C)N(CCC(O)c1cc(F)cc(Cl)c1)Cc1ccccc1` (centres unmarked) [Example 55] was tested, and the inhibition at 100 µM [2] was 30% and the “γ-Secretase Assay N-100 Flag” value [3] was “Inh”.

For `CC(C)N(CCC(O)c1cc(C(F)(F)F)cc(C(F)(F)F)c1)Cc1ccccc1` (centres unmarked) [Example 57], the inhibition at 100 µM [2] was 47% and the “γ-Secretase Assay N-100 Flag” value [3] was “Inh”.

`CC(C)N(CCC(O)c1ccc2ccccc2c1)Cc1ccc(Cl)c(Cl)c1` (centres unmarked) [Example 17] was tested, and the “γ-Secretase Assay C-100 Flag” value [1] was “Inh”, the inhibition at 100 µM [2] was 60% and the “γ-Secretase Assay N-100 Flag” value [3] was “Enh”.

For `OC(CCN1CCN(c2cccc(C(F)(F)F)c2)CC1)c1ccc2ccccc2c1` (centres unmarked) [Example 13], the “γ-Secretase Assay C-100 Flag” value [1] was “Enh”, the inhibition at 100 µM [2] was 38% and the “γ-Secretase Assay N-100 Flag” value [3] was “Enh”.

For `OC(CCNc1ccc(F)c(Cl)c1)c1ccc2ccccc2c1` (centres unmarked) [Example 33], the “γ-Secretase Assay C-100 Flag” value [1] was “Inh”, the inhibition at 100 µM [2] was 40% and the “γ-Secretase Assay N-100 Flag” value [3] was “Inh”.
